Drawing on patent US4870085A, “Tryptamine derivatives active on central nervous system” (Bayer Aktiengesellschaft, priority 1984, dated 1989), this text covers Ki for 32 compounds.

Molecules are shown by their SMILES. Counter-ions that a name gives are not always drawn. Bounds are passed on as bounds.

For one assay, the target named is T1, 5-HT2 receptor (Rattus norvegicus, UniProt P14842).
T1 construct: rat prefrontal cortex; from tissue; host or cells: rat prefrontal cortex
T1 sequence (P14842 whole entry): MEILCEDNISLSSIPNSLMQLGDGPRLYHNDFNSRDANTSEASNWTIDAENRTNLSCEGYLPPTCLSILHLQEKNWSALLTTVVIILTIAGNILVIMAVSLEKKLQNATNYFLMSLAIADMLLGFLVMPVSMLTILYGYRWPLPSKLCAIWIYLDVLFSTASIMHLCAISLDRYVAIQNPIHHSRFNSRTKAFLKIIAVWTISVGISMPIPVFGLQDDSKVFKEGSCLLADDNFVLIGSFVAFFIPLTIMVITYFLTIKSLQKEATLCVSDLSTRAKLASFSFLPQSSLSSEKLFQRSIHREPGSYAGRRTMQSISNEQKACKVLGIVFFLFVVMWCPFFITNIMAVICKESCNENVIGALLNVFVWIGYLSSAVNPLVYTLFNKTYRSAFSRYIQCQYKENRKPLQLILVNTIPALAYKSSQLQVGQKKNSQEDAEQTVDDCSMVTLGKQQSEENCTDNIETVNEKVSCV
Description: Interaction with serotonin receptors: 5-HT2 receptor, rat prefrontal cortex, ligand 3H-ketanserin. Format: binding.
Settings: not given
An excerpt: (§1) Interaction with serotonin receptors
(§2) Inhibition constant K1 (nmol l^-1)
5-HT2 receptor Contraction of the
Ligand: ^3 H--ketanserin
In turn, `C[C@@H]1CCC[C@H](C)N1CCc1c[nH]c2ccccc12` [Example 2, 3-[2-(Cis-2,6-dimethylpiperidinyl)ethyl]indole hydrochloride] gave a Ki of 2500 nM.
Same read-out and setting: next, `C[C@@H]1CCC[C@H](C)N1CCc1c[nH]c2ccc(Br)cc12` [Example 3, 3-[2-(Cis-2,6-dimethylpiperidinyl)ethyl]-5-bromoindole hydrochloride]: 1300 nM.

The target of another assay is 5-HT1 receptor. Description: Interaction with serotonin receptors: 5-HT1 receptor, calf hippocampus, ligand 3H-serotonin. It is filed as binding. The following applies: ligand 3H-serotonin (Table 2), read-out: K1. The method, then: as §1, §2
Ligand: ^3 H--serotonin
In generally similar manner there were prepared additional compounds which, when tested against 5-HT, receptors as in Example 7, gave the results shown in Table 2.
For the compound `C[C@H]1CCC[C@H](C)N1CCc1c[nH]c2ccc(OCc3ccccc3)cc12` (relative stereo) [compound 15], the Ki came out at 500 nM.
On the same count and under the same terms, then `C[C@H]1CCC[C@H](C)N1CCc1c[nH]c2ccc(O)cc12` (relative stereo) [compound 17], with 25 nM; and `COc1ccc2[nH]cc(CCN3[C@@H](C)CCC[C@@H]3C)c2c1` (relative stereo) [compound 20], with 450 nM; and `COc1ccc2[nH]cc(CCN3[C@@H](C)CCC[C@@H]3C)c2c1` (relative stereo) [compound 22], with 45 nM.
Still for that read-out and setting: then `C[C@H]1CCC[C@H](C)N1CCc1c[nH]c2ccccc12` (relative stereo) [compound 29], with 3000 nM; and `COc1ccc2[nH]cc(CCN3[C@H](C)CCC[C@@H]3C)c2c1` [compound 9], with 13 nM; and `COc1ccc2[nH]cc(CCN3[C@H](C)CCC[C@@H]3C)c2c1` [compound 10], with 10 nM.
As to `C[C@@H]1CCC[C@H](C)N1CCc1c[nH]c2ccc(OCc3ccccc3)cc12` [compound 11], the Ki was 200 nM.
Still for that read-out and setting: next, `C[C@@H]1CCC[C@H](C)N1CCc1c[nH]c2ccc(O)cc12` [compound 12]: 15 nM.
`C[C@@H]1CCC[C@H](C)N1CCc1cn(C(N)=O)c2ccccc12` [compound 13]: the Ki was 1800 nM.
As to `C[C@@H]1CCC[C@H](C)N1CCc1c[nH]c2ccc(OCc3ccccc3)cc12` [compound 14], the Ki came out at 800 nM.
Still for that read-out and setting: then `C[C@@H]1CCC[C@H](C)N1CCc1c[nH]c2ccc(O)cc12` [compound 16], with 4 nM; and `C[C@@H]1CCC[C@H](C)N1CCc1c[nH]c2ccc(Br)cc12` [compound 18], with 30 nM; and `C[C@@H]1CCC[C@H](C)N1CCc1c[nH]c2ccccc12` [compound 19], with 800 nM.
Still for that read-out and setting: then `COc1ccc2[nH]cc(CCN3[C@H](C)CCC[C@@H]3C)c2c1` [compound 21], with 70 nM.
For the compound `C[C@@H]1CCC[C@H](C)N1CCc1c[nH]c2ccc(Cl)cc12` [compound 23], the Ki stood at 60 nM.
Same read-out and setting: next, `C[C@@H]1CCC[C@H](C)N1CCc1c[nH]c2ccc(F)cc12` [compound 24]: 170 nM; `CC1CCCCN1CCc1c[nH]c2ccccc12` (centres unmarked) [compound 25]: 170 nM; `CC1CC(C)N(CCc2c[nH]c3ccccc23)C(C)C1` (centres unmarked) [compound 26]: 920 nM.
On the same count and under the same terms, then `Cc1ccc2[nH]cc(CCN3[C@H](C)CCC[C@@H]3C)c2c1` [compound 27], with 40 nM.
The same measure, in the same setting: then `C[C@@H]1CCC[C@H](C)N1CCc1c[nH]c2ccc(C#N)cc12` [compound 28], with 240 nM; and `C[C@@H]1CCC[C@H](C)N1CCc1cn(C(=O)OC(C)(C)C)c2ccccc12` [compound 30], with 1800 nM; and `Cc1ccc(S(=O)(=O)n2cc(CCN3[C@H](C)CCC[C@@H]3C)c3cc(Br)ccc32)cc1` [compound 31], with 3200 nM.
Consider `C[C@@H]1CCC[C@H](C)N1CCc1c[nH]c2ccc(-n3cc(CCN4[C@H](C)CCC[C@@H]4C)c4cc(Br)ccc43)cc12` [compound 32], for which the Ki came out at 680 nM.
Still for that read-out and setting: next, `C[C@@H]1CCC[C@H](C)N1CCc1cn(C)c2ccc(Br)cc12` [compound 34]: 1100 nM; `C[C@@H]1CCC[C@H](C)N1CCc1c[nH]c2ccc(CN)cc12` [compound 35]: 500 nM; `C[C@@H]1CCC[C@H](C)N1CCc1cn(C(=O)c2ccccc2)c2ccc(Br)cc12` [compound 36]: 1000 nM.
The same measure, in the same setting: then `C[C@@H]1CCC[C@H](C)N1CCc1c[nH]c2ccc(C(N)=O)cc12` [compound 37], with 7 nM; and `CC1CC(C)N(CCc2c[nH]c3ccc(Cl)cc23)C(C)C1` (centres unmarked) [compound 38], with 660 nM; and `CC1(C)CCCC(C)(C)N1CCc1c[nH]c2ccccc12` [compound 39], with greater than 10000 nM.
